Results as given in patent publication US12378249B2, “Isoquinoline compounds and uses thereof” (Genentech, Inc., priority 2018, dated 2025).

Each molecule was assayed against HPK1 (Homo sapiens (Human), UniProt Q92918, S171E/T165E) (assay: HPK1-FL HTRF Enzymatic Assay (HTRF)). Conditions: HPK full length T165E S171E 0.125 nM, ATP 1 mM, Biotin-SLP76 100 nM, read-out: HPK1 Ki (nM), H = HTRF.
Assay type: biochemical
How it was run: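 Ki derived from % activity calculated from the TR-FRET 665/620 ratio, using Eu-anti-pSLP76 and SA-XL665 detection added for 60 min. Reaction: compound preincubated 30 min with full-length double-mutant HPK1, then 60 min with Biotin-SLP-76 and 1 mM ATP, pH 7.5 HEPES buffer.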

Chain of HPK1 (Q92918 whole entry T165E/S171E): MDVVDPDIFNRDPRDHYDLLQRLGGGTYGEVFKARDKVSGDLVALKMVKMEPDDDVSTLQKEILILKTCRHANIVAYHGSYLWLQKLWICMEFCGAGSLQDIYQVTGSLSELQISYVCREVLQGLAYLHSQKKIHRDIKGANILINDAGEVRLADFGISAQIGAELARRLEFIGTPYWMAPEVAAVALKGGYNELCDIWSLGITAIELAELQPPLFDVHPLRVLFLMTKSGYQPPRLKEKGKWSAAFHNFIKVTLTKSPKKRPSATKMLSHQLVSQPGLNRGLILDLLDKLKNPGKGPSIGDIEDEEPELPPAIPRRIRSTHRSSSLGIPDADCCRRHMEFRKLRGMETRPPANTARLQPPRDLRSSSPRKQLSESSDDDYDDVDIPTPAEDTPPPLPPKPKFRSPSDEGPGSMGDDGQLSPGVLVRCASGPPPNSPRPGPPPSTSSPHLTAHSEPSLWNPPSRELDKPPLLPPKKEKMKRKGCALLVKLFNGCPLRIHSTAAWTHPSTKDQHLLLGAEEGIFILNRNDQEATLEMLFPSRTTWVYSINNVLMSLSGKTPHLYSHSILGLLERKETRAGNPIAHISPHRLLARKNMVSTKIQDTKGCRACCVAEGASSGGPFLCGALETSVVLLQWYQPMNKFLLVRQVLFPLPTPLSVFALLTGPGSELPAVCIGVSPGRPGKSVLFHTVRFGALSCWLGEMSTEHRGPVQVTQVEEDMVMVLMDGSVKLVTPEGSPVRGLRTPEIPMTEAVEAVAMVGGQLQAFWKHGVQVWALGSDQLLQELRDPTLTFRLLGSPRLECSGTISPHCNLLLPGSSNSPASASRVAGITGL

Row | Ki | SMILES
1 | 0.017 nM | COCCN1CCc2cc(Nc3cc4cc(-c5cncc(N)c5C)c(F)cc4cn3)nn2CC1=O [Compound 156, 2-((6-(5-amino-4-methylpyridin-3-yl)-7-fluoroisoquinolin-3-yl)amino)-6-(2-methoxyethyl)-5,6-dihydro-4H-pyrazolo[1,5-d][1,4]diazepin-7(8H)-one]
2 | 0.014 nM | Cc1c(N)cncc1-c1cc2cc(Nc3cc4n(n3)Cc3nccn3CC4)ncc2c(F)c1F [Compound 157, N-(6-(5-amino-4-methylpyridin-3-yl)-7,8-difluoroisoquinolin-3-yl)-5,6-dihydro-11H-imidazo[1,2-a]pyrazolo[1,5-d][1,4]diazepin-8-amine]
3 | 0.023 nM | Cc1c(N)cncc1-c1cc2cc(Nc3cc4n(n3)CC(=O)N(CC(C)(C)O)CC4)ncc2cc1F [Compound 158, 2-((6-(5-amino-4-methylpyridin-3-yl)-7-fluoroisoquinolin-3-yl)amino)-6-(2-hydroxy-2-methylpropyl)-5,6-dihydro-4H-pyrazolo[1,5-d][1,4]diazepin-7(8H)-one]
4 | 0.015 nM | Cc1c(N)cncc1-c1cc2cc(Nc3cc4n(n3)CC(=O)N(CCO)CC4)ncc2cc1F [Compound 159, 2-((6-(5-amino-4-methylpyridin-3-yl)-7-fluoroisoquinolin-3-yl)amino)-6-(2-hydroxyethyl)-5,6-dihydro-4H-pyrazolo[1,5-d][1,4]diazepin-7(8H)-one]
5 | 0.013 nM | Cc1c(-c2cc3cc(Nc4cc5n(n4)CC(=O)NCC5)ncc3cc2F)cnc2c1NCCO2 [Compound 160, 2-((7-fluoro-6-(8-methyl-2,3-dihydro-1H-pyrido[2,3-b][1,4]oxazin-7-yl)isoquinolin-3-yl)amino)-5,6-dihydro-4H-pyrazolo[1,5-d][1,4]diazepin-7(8H)-one]
6 | 0.014 nM | Cc1c(-c2cc3cc(Nc4cc5n(n4)Cc4nccn4CC5)ncc3c(F)c2F)cnc2c1NCCO2 [Compound 161, N-(7,8-difluoro-6-(8-methyl-2,3-dihydro-1H-pyrido[2,3-b][1,4]oxazin-7-yl)isoquinolin-3-yl)-5,6-dihydro-11H-imidazo[1,2-a]pyrazolo[1,5-d][1,4]diazepin-8-amine]
7 | 0.43 nM | Cc1c(-c2cc3cc(Nc4cc5n(n4)CC(=O)N(C)CC5)ncc3cc2F)cnc2c1N(C)CCO2 [Compound 162, 2-((6-(1,8-dimethyl-2,3-dihydro-1H-pyrido[2,3-b][1,4]oxazin-7-yl)-7-fluoroisoquinolin-3-yl)amino)-6-methyl-5,6-dihydro-4H-pyrazolo[1,5-d][1,4]diazepin-7(8H)-one]
8 | 0.013 nM | Cc1c(N)cncc1-c1cc2cc(Nc3cc4n(n3)Cc3ncc(C)n3CC4)ncc2cc1F [Compound 163, N-(6-(5-amino-4-methylpyridin-3-yl)-7-fluoroisoquinolin-3-yl)-3-methyl-5,6-dihydro-11H-imidazo[1,2-a]pyrazolo[1,5-d][1,4]diazepin-8-amine]
9 | 0.013 nM | Cc1c(N)cncc1-c1cc2cc(Nc3cc4n(n3)CC(=O)N(CCN3CC(F)C3)CC4)ncc2cc1F [Compound 164, 2-((6-(5-amino-4-methylpyridin-3-yl)-7-fluoroisoquinolin-3-yl)amino)-6-(2-(3-fluoroazetidin-1-yl)ethyl)-5,6-dihydro-4H-pyrazolo[1,5-d][1,4]diazepin-7(8H)-one]
10 | 0.12 nM | Cc1c(N)cncc1-c1cc2cc(Nc3cc4n(n3)CC3=NOC(C)(C)N3CC4)ncc2cc1F [Compound 166, N-(6-(5-amino-4-methylpyridin-3-yl)-7-fluoroisoquinolin-3-yl)-3,3-dimethyl-5,6-dihydro-3H,11H-[1,2,4]oxadiazolo[4,3-a]pyrazolo[1,5-d][1,4]diazepin-8-amine]
11 | 0.028 nM | Cc1c(N)cncc1-c1cc(F)c2cnc(Nc3cc4n(n3)Cc3nccn3CC4)cc2c1 [Compound 168, N-(6-(5-amino-4-methylpyridin-3-yl)-8-fluoroisoquinolin-3-yl)-5,6-dihydro-1I1H-imidazo[1,2-a]pyrazolo[1,5-d][1,4]diazepin-8-amine]
12 | 0.39 nM | Cc1c(N)cncc1-c1cc2cc(Nc3cc4n(n3)CC(=O)N(C(C)C)CC4)ncc2cc1C#N [Compound 169, 6-(5-amino-4-methylpyridin-3-yl)-3-((6-isopropyl-7-oxo-5,6,7,8-tetrahydro-4H-pyrazolo[1,5-d][1,4]diazepin-2-yl)amino)isoquinoline-7-carbonitrile]
13 | 1.78 nM | CC(=O)Nc1cncc(-c2cc3cc(Nc4cc5n(n4)CC(=O)N(C)CC5)ncc3cc2F)c1C [Compound 171, N-(5-(7-fluoro-3-((6-methyl-7-oxo-5,6,7,8-tetrahydro-4H-pyrazolo[1,5-d][1,4]diazepin-2-yl)amino)isoquinolin-6-yl)-4-methylpyridin-3-yl)acetamide]
14 | 0.46 nM | Cc1c(NS(C)(=O)=O)cncc1-c1cc2cc(Nc3cc4n(n3)CC(=O)N(C)CC4)ncc2cc1F [Compound 172, N-(5-(7-fluoro-3-((6-methyl-7-oxo-5,6,7,8-tetrahydro-4H-pyrazolo[1,5-d][1,4]diazepin-2-yl)amino)isoquinolin-6-yl)-4-methylpyridin-3-yl)methanesulfonamide]
15 | 0.026 nM | Cc1c(-c2ccc3cnc(Nc4cc5n(n4)CC(=O)N(C)CC5)cc3c2F)cnc2c1NCCO2 [Compound 174, 2-((5-fluoro-6-(8-methyl-2,3-dihydro-1H-pyrido[2,3-b][1,4]oxazin-7-yl)isoquinolin-3-yl)amino)-6-methyl-5,6-dihydro-4H-pyrazolo[1,5-d][1,4]diazepin-7(8H)-one]
16 | 0.14 nM | Cc1c(-c2cc3cc(Nc4cc5n(n4)CC(=O)N(C)CC5)ncc3cc2F)cnc2nc[nH]c12 [Compound 175, 2-((7-fluoro-6-(7-methyl-1H-imidazo[4,5-b]pyridin-6-yl)isoquinolin-3-yl)amino)-6-methyl-5,6-dihydro-4H-pyrazolo[1,5-d][1,4]diazepin-7(8H)-one]
17 | 0.161 nM | Cc1c(-c2cc3cc(Nc4cc5n(n4)CC(=O)NCC5)ncc3cc2F)cnc2c1NCC(F)(F)O2 [Compound 176, 2-((6-(3,3-difluoro-8-methyl-2,3-dihydro-1H-pyrido[2,3-b][1,4]oxazin-7-yl)-7-fluoroisoquinolin-3-yl)amino)-5,6-dihydro-4H-pyrazolo[1,5-d][1,4]diazepin-7(8H)-one]
18 | 0.277 nM | Cc1c(-c2cc3cc(Nc4cc5n(n4)CC(=O)N(C)CC5)ncc3cc2F)cnc2c1NCCS2(=O)=O [Compound 177, 2-((7-fluoro-6-(8-methyl-4,4-dioxido-2,3-dihydro-1H-pyrido[2,3-b][1,4]thiazin-7-yl)isoquinolin-3-yl)amino)-6-methyl-5,6-dihydro-4H-pyrazolo[1,5-d][1,4]diazepin-7(8H)-one]
19 | 23.7 nM | Cc1cc(S(C)(=N)=O)ncc1-c1cc2cc(Nc3cc4n(n3)CC(=O)N(C)CC4)ncc2cc1F (stereo not drawn) [Compound 178, 2-((7-fluoro-6-(4-methyl-6-(S-methylsulfonimidoyl)pyridin-3-yl)isoquinolin-3-yl)amino)-6-methyl-5,6-dihydro-4H-pyrazolo[1,5-d][1,4]diazepin-7(8H)-one]
20 | 0.5 nM | Cc1c(NC2CNC2)cncc1-c1cc2cc(Nc3cc4n(n3)Cc3nccn3CC4)ncc2cc1F [Compound 179, N-(6-(5-(azetidin-3-ylamino)-4-methylpyridin-3-yl)-7-fluoroisoquinolin-3-yl)-5,6-dihydro-11H-imidazo[1,2-a]pyrazolo[1,5-d][1,4]diazepin-8-amine]
21 | 0.026 nM | CNc1cncc(-c2cc3cc(Nc4cc5n(n4)CC(=O)NCC5)ncc3cc2F)c1C [Compound 181, 2-((7-fluoro-6-(4-methyl-5-(methylamino)pyridin-3-yl)isoquinolin-3-yl)amino)-5,6-dihydro-4H-pyrazolo[1,5-d][1,4]diazepin-7(8H)-one]
22 | 0.013 nM | Cc1c(-c2cc3cc(Nc4cc5n(n4)Cc4nccn4CC5)ncc3cc2F)cnc2c1NCCCO2 [Compound 183, N-(7-fluoro-6-(9-methyl-1,2,3,4-tetrahydropyrido[2,3-b][1,4]oxazepin-8-yl)isoquinolin-3-yl)-5,6-dihydro-11H-imidazo[1,2-a]pyrazolo[1,5-d][1,4]diazepin-8-amine]
23 | 0.12 nM | Cc1c(-c2cc3cc(Nc4cc5n(n4)CC(=O)N(C)CC5)ncc3cc2F)cnc2cn[nH]c12 [Compound 186, 2-((7-fluoro-6-(7-methyl-1H-pyrazolo[4,3-b]pyridin-6-yl)isoquinolin-3-yl)amino)-6-methyl-5,6-dihydro-4H-pyrazolo[1,5-d][1,4]diazepin-7(8H)-one]
24 | 0.25 nM | Cc1c(-c2cc3cc(Nc4cc5n(n4)CC(=O)N(C)CC5)ncc3cc2F)cnc2c1NCN(C)C2=O [Compound 187, 7-(7-fluoro-3-((6-methyl-7-oxo-5,6,7,8-tetrahydro-4H-pyrazolo[1,5-d][1,4]diazepin-2-yl)amino)isoquinolin-6-yl)-3,8-dimethyl-2,3-dihydropyrido[3,2-d]pyrimidin-4(1H)-one]
25 | 0.24 nM | Cc1c(-c2cc3cc(Nc4cc5n(n4)CC(=O)N(C)CC5)ncc3cc2F)cnc2c1CCCO2 [Compound 190, 2-((7-fluoro-6-(5-methyl-3,4-dihydro-2H-pyrano[2,3-b]pyridin-6-yl)isoquinolin-3-yl)amino)-6-methyl-5,6-dihydro-4H-pyrazolo[1,5-d][1,4]diazepin-7(8H)-one]
26 | 0.018 nM | Cc1c(-c2cc3cc(Nc4cc5n(n4)CC(=O)NCC5)ncc3cc2F)cnc2c1NCCC2 [Compound 192, 2-((7-fluoro-6-(4-methyl-5,6,7,8-tetrahydro-1,5-naphthyridin-3-yl)isoquinolin-3-yl)amino)-5,6-dihydro-4H-pyrazolo[1,5-d][1,4]diazepin-7(8H)-one]
27 | 23 nM | Cc1c(-c2cc3cc(Nc4cc5n(n4)CC(=O)N(C)CC5)ncc3cc2F)cnc2c1NS(=O)(=O)CO2 [Compound 193, 2-((7-fluoro-6-(8-methyl-2,2-dioxido-1H,3H-pyrido[3,2-e][1,3,4]oxathiazin-7-yl)isoquinolin-3-yl)amino)-6-methyl-5,6-dihydro-4H-pyrazolo[1,5-d][1,4]diazepin-7(8H)-one]
